This is an account of results in a melting point compilation (Tetko et al.; mined from patent text by program, amines drawn as free bases though some values may be those of a salt).

A word on the melting point: it is the temperature of the solid-liquid transition.

SMILES strings stand for the structures.

`Fc1ccc(-c2c(-c3ccncc3)nn3nccnc23)cc1`: the melting point lay within 177 to 178 °C.
`COc1cc(OCCN2CCc3ccccc3C2)ccc1C=NNC(=O)c1ccc(O)c(N)c1` came in with a melting point of 162 to 164 °C.
Regarding `Cc1c2c(cc3c(=O)c4c(F)cccc4oc13)CC(C(=O)O)O2` (stereo not drawn), the melting point was 292 to 295 °C.
`CCOc1nn(Cc2ccc(OCc3cn4c(OCC)cccc4n3)cc2)cc1CCC(=O)O` registered a melting point of 197 to 198 °C.
Next, `CCC12CCC3=C(CCc4cc(OC)ccc43)C1=CCC2=O` (stereo not drawn): 77 to 80 °C.
For `Cc1cc(-n2cnnn2)cc(I)c1N` the value was 172 to 175 °C; for `COC(=O)Nc1ccc(CCc2cc(OC)ccc2OC)cc1C(=O)OC`, 80 to 82 °C.
For `CC(CC(=O)O)CC(=O)N(c1ccccc1)c1cc(C(C)(C)C)c(O)c(C(C)(C)C)c1` (stereo not drawn) the value was 153 to 155 °C.
As to `CSc1ccc(-c2csc(NC(C)=O)n2)cc1`, the melting point is 235 to 236 °C.
Turning to `CN(C)C1(c2ccccc2Cl)C(=O)N(Cc2ccc([N+](=O)[O-])cc2)c2ccc(Cl)cc21` (stereo not drawn), the melting point was 189 to 193 °C.
For `CC(Br)C(=O)c1cc([N+](=O)[O-])cs1` (stereo not drawn) the value was 82.5 to 83 °C; for `CNCC1(C2(O)CCCC2)Cc2cc3sccc3cc21` (stereo not drawn), 166 to 169 °C; for `CC(C)c1ccc(C(=O)Nc2cn3cc(-n4ccnc4)ccc3n2)cc1`, 291 to 293 °C.
As to `Nc1cccc(OCc2ccccc2)c1N`, the melting point worked out at 68 °C.
Next, `CN(C)C(=N)Nc1ccccc1-c1cccc(S(C)(=O)=O)c1`: 113 to 114 °C.
Turning to `CS(=O)(=O)c1ccc(-n2nc(C(F)(F)F)nc2-c2ccc(Br)cc2)nc1`, the melting point was 143 to 145 °C.
The compound `COC1Nc2c(OC(C)=O)cccc2C(=O)N2CCCC12` (stereo not drawn) displayed a melting point of 147 to 150 °C.
Next, `CN(C)C(=O)COC(=O)c1ccc(Cl)cc1OCC(=O)N(C)C`: 140 to 141 °C; `COc1ccc(C(=O)Nc2ccccc2)cc1NS(=O)(=O)c1cc(Cl)cc(Cl)c1`: 222 to 228 °C; `O=Cc1ccnc2ccc(-c3ccccc3)cc12`: 115 °C.
In turn, `CC(=O)Nc1ccc(C23CC2C(=O)NC3=O)cc1` (stereo not drawn) displayed a melting point of over 230 °C.
For `O=S(CCl)c1ncc(Cl)cn1` (stereo not drawn) the value was 90 °C.
For `NC(=S)c1cccc(-c2cccc(C(N)=S)c2)c1` the value was 188 to 190 °C.
Compound `Cc1c(C)n(CC(F)F)c2c(OCc3ccccc3)nncc12` registered a melting point of 128 to 131 °C.
Next, `COc1ccc2c(c1)CC(C(F)(F)F)N2C(=O)Nc1ccc(Oc2cccnc2)nc1` (stereo not drawn): 202 to 204 °C; `C[Si](C)(C)c1ccc2c(c1)cc(C(=O)Nc1ccc(N3CC(O)C3)nc1)n2Cc1cccc(F)c1`: 207 to 208 °C; `CCOC(=O)C1CN(C(=O)C2=Cc3cc(OC)c(OC)cc3CCC2)CCN1` (stereo not drawn): 105 to 106 °C.
As to `O=C(NCc1ccco1)c1ccc(-c2ccc3nnn(Cc4ccc5ncccc5c4)c3n2)cc1F`, the melting point is 144 to 147 °C.
For `Cn1ccnc1Sc1ccc(Nc2c(C#N)cnc3cc(/C=C/CCOC4CCCCO4)ccc23)cc1Cl` (stereo not drawn) the value was 217 to 220 °C; for `O=C1Nc2c(F)cc(F)cc2C1c1ncnc2nn(C3CCCC3)cc12` (stereo not drawn), 296 to 297 °C; for `CCCC#Cc1ccnc2c1c(C(C)=O)cn2S(=O)(=O)c1ccccc1`, 134 to 136 °C.
For `C[C@@H]1S[C@@H](C(=O)Nc2ccc(CN3CCCC3)cc2)Cc2cc3c(cc2C1=O)OCO3`, the melting point was in the range of 186 to 188 °C.
Next, `COc1ccc(Cn2c3c(c(C#N)c2NC2=CC(=O)CCC2)CCCC3)cc1`: 143 to 145 °C; `COC(=O)c1ccccc1S(=O)(=O)NC(=O)Nc1nc(C)c2cc(C)oc2n1`: 197 to 198 °C; `Cc1ncsc1C(O)c1ccc(Cl)cc1` (stereo not drawn): 134 °C.
Turning to `CC(=O)NC[C@H]1CN(c2ccc3c(c2)CC[C@@H](C)N3C=O)C(=O)O1`, the melting point fell in the range of 89 to 91 °C.
Turning to `CCN(CC)C(=O)C1=C(C(=O)Nc2ccc(Cl)cc2F)CCCC1`, the melting point was in the range of 105 to 106 °C.
Next, `Cn1nc(N)c2c(=O)n(-c3ccccc3)c3ncccc3c21`: over 300 °C; `CC(C)(C)c1ccc2c3c(c(=O)oc2c1)CNCC3`: 181 to 186 °C; `Cc1cc(C(=O)OC2CC3C(=O)NC4(C(=O)NS(=O)(=O)C5CC5)CC4C=CCCCCCC(NC(=O)OC(C)(C)C)C(=O)N3C2)no1` (stereo not drawn): 157 to 159 °C.
For `CC(C)(C)OC(=O)NC(CF)CC(=O)O` (stereo not drawn) the value was 112 °C; for `CN(CCNC(=C[N+](=O)[O-])SCc1ccccc1)Cc1ccc(Cl)nc1`, 119 to 123 °C.
Compound `CC(=O)OCc1c(Br)cccc1N1Cc2cc(N(C)C)ccc2C1=O` gave a melting point of 93 to 95 °C.
For `CCOC(=O)c1cn(-c2nc(F)c(F)c(NC(C)(C)C)c2F)c2c(Cl)c(F)c(F)cc2c1=O` the value was 145 to 146 °C; for `Nc1ccc(C(=S)SCCO)cc1`, 87.5 to 89.5 °C; for `CCN(CC)C(=O)c1cc(O)c(O)c([N+](=O)[O-])c1`, 145 to 146 °C.
Next, `O=C(O)C1CCCC(C(=O)O)C1` (stereo not drawn): 163 to 165 °C; `CC(C)(C)OC(=O)CN(O)CC(=O)OC(C)(C)C`: 73 to 76 °C.
As to `O=C(c1ccccc1)N1CCC2OC2C1` (stereo not drawn), the melting point lay within 212 to 213 °C.
Compound `COc1ccc(CNc2cc(C(c3cc(F)ccc3F)S(=O)(=O)c3ccc(Cl)cc3)c(Cl)cn2)cc1OC` (stereo not drawn) yielded a melting point of 204 to 206 °C.
`OCCc1cc2c(cc1Cc1ccccc1)OCO2` gave a melting point of 64 to 65 °C.
Next, `COc1cccc(S)c1S(=O)(=O)NC(C)(C)C`: 210 °C; `O=C1CCC(N2C(=O)c3cccc(NC(=O)Cc4ccccc4)c3C2=O)C(=O)N1` (stereo not drawn): 217 to 218 °C; `CC(=O)c1sc(-c2ccc(C(F)(F)F)cc2)nc1C`: 89 to 90 °C.
In turn, `CCOC(=O)c1cccc2nc(OC)n(Cc3ccc(-c4ccccc4C#N)cc3)c12` had a melting point of 160 to 161 °C.
The compound `COC(=O)c1ccc2cc(CCCCc3cc4ccc(C(=O)OC)cc4o3)oc2c1` registered a melting point of 130 to 131 °C.
`CS(=O)(=O)c1ccc(-c2cnn(-c3cccc(Cl)c3)c(=O)c2Oc2cccc(F)c2)cc1` had a melting point of 178 to 180 °C.
Turning to `CCCCN(C(C)=O)c1cccc(-c2ccnc3c(C#N)cnn23)c1`, the melting point was 146 to 148 °C.
Turning to `CCOC(=O)c1cnn(-c2ccc(Oc3ccc(C)cc3O)cc2)c1`, the melting point fell in the range of 122 to 123 °C.
For `O=C(O)CCC(=O)c1cccc(C(F)(F)F)c1` the value was 80 to 82 °C; for `COc1ccc(NC(=O)NCc2cccc3c2CN(C2CCC(=O)NC2=O)C3=O)cc1` (stereo not drawn), 320 to 322 °C.
Next, `O=C(Nc1c(OCc2ccccc2)cccc1C(=O)O)c1ccccc1`: 114 to 116 °C.
`CCCCOc1cccc(C[C@H](NC(=O)c2coc(NS(C)(=O)=O)n2)[C@H](O)CNCc2cccc(CC)c2)c1` showed a melting point of 78 to 80 °C.
For `O=C(CC1CCCC1)Nc1ccc2c(c1)C(=O)C(Br)CC2` (stereo not drawn) the value was 162 to 164 °C; for `CCN1CC(c2ccccc2)=C(O)C1=O`, 192 to 195 °C.
For the compound `COc1ccc(Cl)cc1C(=O)NCCc1ccc(-c2ccc(F)cc2)c(S(N)(=O)=O)c1`, the melting point worked out at 195 °C.
`Cn1cc(-c2ccccc2)c(=O)c(-c2ccc(Cl)c(Cl)c2)c1`: the melting point came out at 166 °C.
Compound `Cc1ccc(C(=O)NC(NC(=O)Nc2ccccc2F)C(Cl)(Cl)Cl)cc1` (stereo not drawn) returned a melting point of 257 to 259 °C.
Next, `Cc1cc(C)cc(S(=O)(=O)n2c(CCCC(=O)O)cc3cc(Cl)ccc32)c1`: 204 to 206 °C; `CC(=O)OC1=C(CCCCCCCCC[Si](C)(C)C)C(=O)c2ccccc2C1=O`: 45 to 47 °C.
Regarding `N#CC(Cc1ccccc1)=NNc1ccc([N+](=O)[O-])cc1`, the melting point lay in the range of 158 to 160 °C.
For `CSc1nc(C)ccc1NC(=O)CCCCCCCCBr` the value was 80 to 82 °C; for `N#CCCNC(=O)c1cccc(-c2ccc3c(c2)C(Oc2ccc(Cl)cc2Cl)CC3)c1` (stereo not drawn), 139 to 145 °C.
Next, `CCOC(=O)c1nc(-c2ccc(Cl)cc2Cl)c(-c2ccc(Br)cc2)s1`: 129 to 130 °C; `O=C1CC(c2cccs2)=Nc2ccc(-c3ccc(=O)[nH]c3)cc2N1`: over 250 °C; `CCOC(=O)c1ccc(NCC=Cc2ccccc2)cc1`: 123 to 131 °C.
For `COc1nnc2n1-c1sc(CCC(=O)N3CCOCC3)cc1C(c1ccccc1Cl)=NC2` the value was 163 to 164 °C; for `CCOC(=O)c1c2n(c3cc(N4CCN(C(C)=O)CC4)c(Cl)cc3c1=O)CS2`, 266 to 268 °C.
Take `Cc1[nH]c2ccccc2c1C=C1SC(=S)N(CC(=O)O)C1=O`: the melting point fell in the range of 291 to 292 °C.
`Cc1cc2c(cc1S(=O)(=O)c1ccc(Cl)cc1)OC(C(=O)O)O2` (stereo not drawn) displayed a melting point of 169 to 171 °C.
Next, `COc1ccc(S(=O)(=O)C2(C(=O)NO)CCN(Cc3ccc(-c4ccccn4)cc3)CC2)cc1`: 214 °C; `CCCCn1nnc(NCc2ccc(-c3ccccc3-c3nnn[nH]3)cc2)c1C(=O)O`: 154 to 155 °C.
Next, `c1cc(-c2ccc3nncn3n2)cs1`: 189 to 192 °C; `CCN(C(=O)OC(C)(C)C)C1CC=C(c2c[nH]c3cc(NC(=N)c4cccs4)ccc23)CC1` (stereo not drawn): 110 to 112 °C; `CC(C)c1ccc(S(=O)(=O)c2ccccc2)cc1S(=O)(=O)NC1CCN(C(=O)c2ccc(C(C)(C)C)cc2)CC1`: 150 to 152 °C.
Next, `CNC(=O)CC1N=C(C2CCCCC2)c2c(sc(C)c2C)-n2c(C)nnc21` (stereo not drawn): 228 to 231 °C.
As for `Cc1cc2sc3ncc(C(=O)Nc4nnn[nH]4)c(=O)n3c2cc1C`, the melting point is over 300 °C.
Next, `O=C(Nc1ccc(F)cn1)c1cc(-c2ccc(Cl)c(Cl)c2)nc2ccccc12`: 204 to 205 °C.
